Patent US20200017496A1 (priority 2017, published 2020)
Read-outs that look alike come from different tables or passages of the source.

Tests used:
Assay in all cases: MIC of compounds alone and combined with antibacterials, broth microdilution (CLSI)
Type in all cases: cell-based
[1] = test system: Escherichia coli (ECO) isolates; settings: for MIC: Escherichia coli, ATB alone
Experimental: (§1) Method 2: MIC of Compounds Alone and Combined with Antibacterials Against Bacterial Isolates.
(§2) Compounds of the present invention were assessed against genotyped bacterial strains (Table 3, 4) alone or in combination with an antibacterial (Table 2). […] Log phase bacterial suspensions were adjusted to a final density of 5·10^5 CFU/mL in cation-adjusted Mueller-Hinton broth (ca-MHB; Becton-Dickinson and Company) and added to each well (98 μL). Microplates were incubated for 16-20 h at 35° C. in ambient air. The MIC of the compounds was defined as the lowest concentration of said compounds that prevented bacterial growth as read by visual inspection. The MIC of ATB at each compound concentration was defined as the lowest concentration of ATB that prevented bacterial growth as read by visual inspection.

[2] = test system: Serratia marcescens (SMA) isolates; settings: for MIC: Serratia marcescens
Experimental: as §1, §2

[3] = test system: Enterobacter aerogenes (EAE) isolates; settings: for MIC: Klebsiella aerogenes
Experimental: as §1, §2

CC(C)(O/N=C(\C(=O)N[C@@H]1C(=O)N2C(C(=O)[O-])=C(C[n+]3ccccc3)CS[C@H]12)c1csc(N)n1)C(=O)O [CAZ, Ceftazidime]
MIC ATB in combination ([1]; ECO UFR20, AF1 @ 4 μg/mL): 1 µg/mL
MIC ATB in combination ([1]; ECO UFR20, AF1 @ 8 μg/mL): 1 µg/mL
MIC ATB in combination ([1]; ECO UFR61O, AF1 @ 4 μg/mL): 2 µg/mL
MIC ATB in combination ([1]; ECO UFR61O, AF1 @ 8 μg/mL): 0.5 µg/mL
MIC ATB in combination ([1]; ECO UFR62, AF1 @ 4 μg/mL): <=0.25 μg/mL
MIC ATB in combination ([1]; ECO UFR62, AF1 @ 8 μg/mL): <=0.25 μg/mL
MIC ATB in combination ([1]; ECO UFR74, AF1 @ 4 μg/mL): 1 µg/mL
MIC ATB in combination ([1]; ECO UFR74, AF1 @ 8 μg/mL): <=0.25 μg/mL
MIC ATB in combination ([1]; ECO UFR86, AF1 @ 4 μg/mL): 1 µg/mL
MIC ATB in combination ([1]; ECO UFR86, AF1 @ 8 μg/mL): <=0.25 μg/mL
MIC ATB in combination ([1]; ECO UFR174, AF1 @ 4 μg/mL): <=0.25 μg/mL
MIC ATB in combination ([1]; ECO UFR174, AF1 @ 8 μg/mL): <0.25 µg/mL
MIC ATB in combination ([1]; ECO UFR175, AF1 @ 4 μg/mL): 2 µg/mL
MIC ATB in combination ([1]; ECO UFR175, AF1 @ 8 μg/mL): <=0.25 μg/mL
MIC ATB in combination ([1]; ECO UFR176, AF1 @ 4 μg/mL): 2 µg/mL
MIC ATB in combination ([1]; ECO UFR176, AF1 @ 8 μg/mL): <=0.25 μg/mL
MIC ATB in combination ([1]; ECO UFR184, AF1 @ 4 μg/mL): 1 µg/mL
MIC ATB in combination ([1]; ECO UFR184, AF1 @ 8 μg/mL): <=0.25 μg/mL
MIC ATB in combination ([1]; ECO UFR185, AF1 @ 4 μg/mL): 2 µg/mL
MIC ATB in combination ([1]; ECO UFR185, AF1 @ 8 μg/mL): <0.25 µg/mL
MIC ATB in combination ([1]; ECO UFR186, AF1 @ 4 μg/mL): <=0.25 μg/mL
MIC ATB in combination ([1]; ECO UFR186, AF1 @ 8 μg/mL): <=0.25 μg/mL
MIC ATB in combination ([1]; ECO UFR187, AF1 @ 4 μg/mL): 1 µg/mL
MIC ATB in combination ([1]; ECO UFR187, AF1 @ 8 μg/mL): <=0.25 μg/mL
MIC ATB in combination ([1]; ECO UFR189, AF1 @ 4 μg/mL): <=0.25 μg/mL
MIC ATB in combination ([1]; ECO UFR189, AF1 @ 8 μg/mL): <=0.25 μg/mL
MIC ATB in combination ([1]; ECO UFR190, AF1 @ 4 μg/mL): <=0.25 μg/mL
MIC ATB in combination ([1]; ECO UFR190, AF1 @ 8 μg/mL): <=0.25 μg/mL
MIC ATB in combination ([1]; ECO UFR191, AF1 @ 4 μg/mL): <=0.25 μg/mL
MIC ATB in combination ([1]; ECO UFR191, AF1 @ 8 μg/mL): <=0.25 μg/mL
MIC ATB in combination ([1]; ECO UFR207, AF1 @ 4 μg/mL): <=0.25 μg/mL
MIC ATB in combination ([1]; ECO UFR207, AF1 @ 8 μg/mL): <=0.25 μg/mL
MIC ATB in combination ([1]; ECO UFR208, AF1 @ 4 μg/mL): 4 µg/mL
MIC ATB in combination ([1]; ECO UFR208, AF1 @ 8 μg/mL): 2 µg/mL
MIC ATB in combination ([1]; ECO UFR209, AF1 @ 4 μg/mL): <=0.25 μg/mL
MIC ATB in combination ([1]; ECO UFR209, AF1 @ 8 μg/mL): <=0.25 μg/mL
MIC ATB in combination ([1]; ECO UFR210, AF1 @ 4 μg/mL): <=0.25 μg/mL
MIC ATB in combination ([1]; ECO UFR210, AF1 @ 8 μg/mL): <=0.25 μg/mL
MIC ATB in combination ([1]; ECO UFR211, AF1 @ 4 μg/mL): 0.5 µg/mL
MIC ATB in combination ([1]; ECO UFR211, AF1 @ 8 μg/mL): <=0.25 μg/mL
MIC ATB in combination ([1]; ECO UFR212, AF1 @ 4 μg/mL): 4 µg/mL
MIC ATB in combination ([1]; ECO UFR212, AF1 @ 8 μg/mL): <=0.25 μg/mL
MIC ATB in combination ([1]; ECO UFR218, AF1 @ 4 μg/mL): <=0.25 μg/mL
MIC ATB in combination ([1]; ECO UFR218, AF1 @ 8 μg/mL): <0.25 µg/mL
MIC ([1]; strain ECO 4133 (TEM-30, OXA-1)): 0.5 µg/mL
MIC ([1]; strain ECO 5302 (TEM-1, OXA-1)): 0.5 µg/mL
MIC ([1]; strain ECO 131119 (TEM-1, OXA-48)): 0.5 µg/mL
MIC ([1]; strain ECO 190314 (CTX-M-1)): 8 µg/mL
MIC ([1]; strain ECO 190457 (CTX-M-15, OXA-1)): 16 µg/mL
MIC ([1]; strain ECO 190549 (CTX-M-1)): 4 µg/mL
MIC ([1]; strain ECO 200344 (CTX-M-1)): 8 µg/mL
MIC ([1]; strain ECO 260304 (CTX-M-15)): 16 µg/mL
MIC ([1]; strain ECO RGN238 (OXA-1)): 0.5 µg/mL
MIC ([1]; strain ECO UFR15 (TEM-1, OXA-48)): 0.5 µg/mL
MIC ([1]; strain ECO UFR86 (ompC-, ompF-), read-out: MIC): 2 µg/mL
MIC ([1]; strain ECO UFR174 (TEM-1, KPC-2, OXA-1)): 8 µg/mL
MIC ([1]; strain ECO UFR175 (TEM-1, KPC-2, OXA-9)): 32 µg/mL
MIC ([1]; strain ECO UFR185 (OXA-48), read-out: MIC): > 256 µg/mL
MIC ([1]; strain ECO UFR186 (TEM-1, CTX-M-14, OXA-48)): 8 µg/mL
MIC ([1]; strain ECO UFR187 (CTX-M-15, OXA-48)): 8 µg/mL
MIC ([1]; strain ECO UFR191 (TEM-1, CTX-M-24, OXA-48)): 4 µg/mL
MIC ([1]; strain ECO UFR210 (SHV-12)): 32 µg/mL
MIC ATB in combination ([2]; SMA UFR30, AF1 @ 4 μg/mL): <=0.25 μg/mL
MIC ATB in combination ([2]; SMA UFR30, AF1 @ 8 μg/mL): <=0.25 μg/mL
MIC ATB in combination ([2]; SMA UFR134, AF1 @ 8 μg/mL): <=0.25 μg/mL
MIC ATB in combination ([2]; SMA UFR135, AF1 @ 4 μg/mL): 2 µg/mL
MIC ATB in combination ([2]; SMA UFR135, AF1 @ 8 μg/mL): 1 µg/mL
MIC ATB in combination ([2]; SMA UFR136, AF1 @ 4 μg/mL): 2 µg/mL
MIC ATB in combination ([2]; SMA UFR136, AF1 @ 8 μg/mL): 1 µg/mL
MIC ATB in combination ([2]; SMA UFR137, AF1 @ 4 μg/mL): <=0.25 μg/mL
MIC ATB in combination ([2]; SMA UFR137, AF1 @ 8 μg/mL): <=0.25 μg/mL
MIC ATB in combination ([2]; SMA UFR138, AF1 @ 4 μg/mL): <=0.25 μg/mL
MIC ATB in combination ([2]; SMA UFR138, AF1 @ 8 μg/mL): <=0.25 μg/mL
MIC ATB in combination ([2]; SMA UFR139, AF1 @ 4 μg/mL): <=0.25 μg/mL
MIC ATB in combination ([2]; SMA UFR139, AF1 @ 8 μg/mL): <=0.25 μg/mL
MIC ATB in combination ([2]; SMA UFR141, AF1 @ 8 μg/mL): <=0.25 μg/mL
MIC ATB in combination ([2]; SMA UFR239, AF1 @ 4 μg/mL): 8 µg/mL
MIC ATB in combination ([2]; SMA UFR239, AF1 @ 8 μg/mL): 4 µg/mL
MIC [2]: > 256 µg/mL
MIC ([2]; strain SMA UFR30 (OXA-405), ATB alone, read-out: MIC): 8 µg/mL
MIC ([2]; strain SMA UFR134 (TEM-1, BES-1), ATB alone, read-out: MIC): 8 µg/mL
MIC ([2]; strain SMA UFR135 (TEM-1, KPC-2), ATB alone, read-out: MIC): 32 µg/mL
MIC ([2]; strain SMA UFR138 (SME-1), ATB alone, read-out: MIC): ≤ 0.25 µg/mL
MIC ([2]; strain SMA UFR139 (SME-2), ATB alone, read-out: MIC): ≤ 0.25 µg/mL
MIC ([2]; strain SMA UFR141 (OXA-48), ATB alone, read-out: MIC): 1 µg/mL
MIC ([2]; strain SMA UFR239 (ESAC), ATB alone, read-out: MIC): 32 µg/mL
MIC ATB in combination ([2]; strain SMA UFR238, antibacterial combined with AF1 @ 8 μg/mL): <=0.25 μg/mL
MIC ATB in combination ([3]; EAE 49469, AF1 @ 4 μg/mL): 8 µg/mL
MIC ATB in combination ([3]; EAE 49469, AF1 @ 8 μg/mL): 2 µg/mL
MIC ATB in combination ([3]; EAE 200261, AF1 @ 4 μg/mL): 2 µg/mL
MIC ATB in combination ([3]; EAE 200261, AF1 @ 8 μg/mL): 0.5 µg/mL
MIC ATB in combination ([3]; EAE UFR199, AF1 @ 4 μg/mL): 1 µg/mL
MIC ATB in combination ([3]; EAE UFR199, AF1 @ 8 μg/mL): 0.5 µg/mL
MIC ATB in combination ([3]; EAE UFR201, AF1 @ 4 μg/mL): 0.5 µg/mL
MIC ATB in combination ([3]; EAE UFR201, AF1 @ 8 μg/mL): <=0.25 μg/mL
MIC ATB in combination ([3]; EAE UFR202, AF1 @ 4 μg/mL): 2 µg/mL
MIC ATB in combination ([3]; EAE UFR202, AF1 @ 8 μg/mL): 1 µg/mL
MIC ATB in combination ([3]; EAE UFR213, AF1 @ 4 μg/mL): 0.5 µg/mL
MIC ATB in combination ([3]; EAE UFR213, AF1 @ 8 μg/mL): 0.5 µg/mL
MIC [3]: > 256 µg/mL
MIC ([3]; strain EAE UFR202 (TEM-24), ATB alone, read-out: MIC): > 256 µg/mL
MIC ([3]; strain EAE UFR213 (TEM-24), ATB alone, read-out: MIC): > 256 µg/mL
